Data published in the NIST ThermoML archive (doi:10.1016/j.jct.2017.07.004).

Experiment: xn = mol fraction of the nth substance listed
Settings: 100 kPa, Liquid; for viscosity: Concentric cylinders viscometry; for mass density: Vibrating tube method

CCC=O [propanal] + CCCC(C)O
Settings	mass density [kg/m3]	viscosity [mPa·s]
293.15 K, x1 = 0.0809	811	3.75
293.15 K, x1 = 0.1599	813.1	3.51
293.15 K, x1 = 0.2402	814.7	3.25
293.15 K, x1 = 0.35	816.4	2.87
293.15 K, x1 = 0.44	817	2.54
293.15 K, x1 = 0.5599	816.7	2.08
293.15 K, x1 = 0.65	815.8	1.73
293.15 K, x1 = 0.74	814.1	1.38
293.15 K, x1 = 0.85	810.6	0.94
293.15 K, x1 = 0.94	806.5	0.57
293.15 K, x1 = 1	802.4	0.34
298.15 K, x1 = 0.0809	806.6	3.11
298.15 K, x1 = 0.1599	808	2.91
298.15 K, x1 = 0.2402	809.2	2.71
298.15 K, x1 = 0.35	809.9	2.42
298.15 K, x1 = 0.44	810.2	2.15
298.15 K, x1 = 0.5599	809.5	1.78
298.15 K, x1 = 0.65	808.4	1.49
298.15 K, x1 = 0.74	806.6	1.2
298.15 K, x1 = 0.85	803.4	0.83
298.15 K, x1 = 0.94	799.8	0.52
298.15 K, x1 = 1	796.2	0.33
303.15 K, x1 = 0.0809	802.1	2.64
303.15 K, x1 = 0.1599	803.2	2.47
303.15 K, x1 = 0.2402	804	2.29
303.15 K, x1 = 0.35	804.5	2.04
303.15 K, x1 = 0.44	804.4	1.82
303.15 K, x1 = 0.5599	803.5	1.52
303.15 K, x1 = 0.65	802.2	1.29
303.15 K, x1 = 0.74	800.4	1.04
303.15 K, x1 = 0.85	797.1	0.73
303.15 K, x1 = 0.94	793.6	0.47
303.15 K, x1 = 1	790.3	0.31
308.15 K, x1 = 0.0809	797.7	2.24
308.15 K, x1 = 0.1599	798.5	2.11
308.15 K, x1 = 0.2402	798.9	1.96
308.15 K, x1 = 0.35	799	1.74
308.15 K, x1 = 0.44	798.7	1.55
308.15 K, x1 = 0.5599	797.5	1.29
308.15 K, x1 = 0.65	796.1	1.1
308.15 K, x1 = 0.74	794.2	0.89
308.15 K, x1 = 0.85	791	0.64
308.15 K, x1 = 0.94	787.6	0.43
308.15 K, x1 = 1	784.5	0.3
313.15 K, x1 = 0.0809	793.1	1.88
313.15 K, x1 = 0.1599	793.6	1.76
313.15 K, x1 = 0.2402	793.9	1.63
313.15 K, x1 = 0.35	793.8	1.45
313.15 K, x1 = 0.44	793.3	1.3
313.15 K, x1 = 0.5599	792	1.09
313.15 K, x1 = 0.65	790.5	0.92
313.15 K, x1 = 0.74	788.5	0.75
313.15 K, x1 = 0.85	785.3	0.56
313.15 K, x1 = 0.94	781.9	0.39
313.15 K, x1 = 1	779	0.28
318.15 K, x1 = 0.0809	788.6	1.55
318.15 K, x1 = 0.1599	788.9	1.45
318.15 K, x1 = 0.2402	789	1.34
318.15 K, x1 = 0.35	788.7	1.19
318.15 K, x1 = 0.44	788.1	1.07
318.15 K, x1 = 0.5599	786.5	0.9
318.15 K, x1 = 0.65	785	0.77
318.15 K, x1 = 0.74	782.9	0.64
318.15 K, x1 = 0.85	779.6	0.49
318.15 K, x1 = 0.94	776.2	0.35
318.15 K, x1 = 1	773.5	0.27
323.15 K, x1 = 0.0809	783.9	1.29
323.15 K, x1 = 0.1599	783.9	1.2
323.15 K, x1 = 0.2402	783.5	1.1
323.15 K, x1 = 0.35	782.7	0.97
323.15 K, x1 = 0.44	781.8	0.87
323.15 K, x1 = 0.5599	780.1	0.74
323.15 K, x1 = 0.65	778.4	0.64
323.15 K, x1 = 0.74	776.4	0.54
323.15 K, x1 = 0.85	773.4	0.42
323.15 K, x1 = 0.94	770.6	0.32
323.15 K, x1 = 1	768.2	0.25
